Tests used:
MCF-7 cells = assay: MTT cytotoxicity assay, MCF-7; format: cell-based, human; conditions: MCF7; human breast cancer cell line; MTT, 48 h exposure; mean ± SD, three independent experiments
Method: (§1) All compounds were evaluated for their in vitro cytotoxic activity against five human cancer cell lines including human breast MCF-7, human breast MDA-MB-435, human lung A549, human liver HepG2 and human colon HCT-116, and compared with their effects on the immortalized human breast epithelial cell line MCF-10A by MTT assay using epirubicin (an anticancer drug used widely in the clinic) as positive control.
(§2) MCF-7, MDA-MB-435, A549, HepG2 and HCT-116 cells were cultured in Dulbecco’s modification Eagle’s medium (DMEM, Invitrogen, Carlsbad, CA, USA) supplemented with 10% fetal bovine serum (FBS, Hyclone, Logan, UT, USA), 2 mM L-glutamine, 100 μg/mL streptomycin and 100 U/mL penicillin (Invitrogen). MCF-10A cells were cultured in keratinocyte serum free medium (KSFM) supplemented with 0.1–0.2 ng/mL human recombinant epidermal growth factor and 20–30 μg/mL bovine pituitary extract (Invitrogen). The cells were incubated at 37 °C in a humidified atmosphere with 5% CO2.
(§3) Cells were harvested during logarithmic growth phase and seeded in 96-well plates at a density of 1 × 10^4 cells/mL, and cultured at 37 °C in a humidified incubator (5% CO2) for 24 h, followed by exposure to various concentrations of compounds tested for 48 h. Subsequently 20 μL of MTT (Genview, Houston, TX, USA) solution (5 mg/mL) was added to each well and mixed, the cells were then incubated for an additional 4 h. Culture supernatant was moved, 150 μL of DMSO (Sangon Biotech, Shanghai, China) was added to each well to fully dissolve the MTT-formazan crystals. Cell growth inhibition was determined by measuring the absorbance (Abs) at λ = 570 nm using a microplate reader and calculated according to the following equation:
(§4) Growth inhibition = (1 − OD of treated cells/OD of control cells) × 100%
(§5) The half maximal inhibitory concentrations (IC50) were obtained from liner regression analysis of the concentration-response curves plotted for each tested compound.

MDA-MB-435 cells = assay: MTT cytotoxicity assay, MDA-MB-435; format: cell-based, human; conditions: MDA-MB-435; human breast cancer cell line; MTT, 48 h exposure; mean ± SD, three independent experiments
Method: as §1, §2, §3, §4, §5

A549 cells = assay: MTT cytotoxicity assay, A549; format: cell-based, human; conditions: A549; human lung cancer cell line; MTT, 48 h exposure; mean ± SD, three independent experiments
Method: as §1, §2, §3, §4, §5

HepG2 cells = assay: MTT cytotoxicity assay, HepG2; format: cell-based, human; conditions: Homo sapiens, HepG2, 48 h, human liver cancer cell line; MTT, 48 h exposure; mean ± SD, three independent experiments
Method: as §1, §2, §3, §4, §5

HCT-116 cells = assay: MTT cytotoxicity assay, HCT-116; format: cell-based, human; conditions: HCT-116; human colon cancer cell line; MTT, 48 h exposure; mean ± SD, three independent experiments
Method: as §1, §2, §3, §4, §5

[1] = MTT cytotoxicity assay, MCF-10A; format: cell-based; conditions: MCF-10A cells, immortalized human breast epithelial cell line, 48 h exposure, mean ± SD, three independent experiments
Method: as §1, §2, §3, §4, §5

Compound	IC50 (MCF-7 cells)	IC50 (MDA-MB-435 cells)	IC50 (A549 cells)	IC50 (HepG2 cells)	IC50 (HCT-116 cells)	IC50 at 48 h [1]	melting point
COC1=CC(=O)c2c(O)c3c(c(O)c2C1=O)C[C@](C)(O)[C@H](O)[C@H]3O [Compound 1, Bostrycin]	2.18 ± 0.14 µM	2.82 ± 0.17 µM	2.63 ± 0.33 µM	7.71 ± 0.72 µM	4.78 ± 0.03 µM	14.1 ± 0.58 µM	
COC1=CC(=O)c2c(O)c3c(c(O)c2C1=O)C[C@](C)(O)[C@H](O)C3 [Compound 2, Deoxybostrycin]	2.69 ± 0.31 µM	3.19 ± 0.92 µM	4.49 ± 0.13 µM	9.99 ± 0.55 µM	5.69 ± 0.25 µM	13.8 ± 0.76 µM	224 to 225 °C
COC1=CC(=O)c2c(cc3c(c2O)C[C@@H](O)[C@@](C)(O)C3)C1=O [Compound 3, Nigrosporin B]	6.19 ± 0.6 µM	2.91 ± 0.18 µM	4.72 ± 0.17 µM	31 ± 0.71 µM	4.7 ± 0.39 µM	28.6 ± 0.91 µM	> 300 °C
COC1=CC(=O)c2c(O)c3c(c(O)c2C1=O)C[C@]1(C)OC(C)(C)O[C@@H]1[C@H]3O [Compound 5, 2,3-O-(isopropylidene) Bostrycin]	6.87 ± 0.33 µM	5.96 ± 0.21 µM	4.25 ± 0.16 µM	37 ± 1.97 µM	11 ± 1.35 µM	18.1 ± 1.3 µM	228 to 229 °C
COC1=CC(=O)c2c(O)c3c(c(O)c2C1=O)C[C@]1(C)OC(C=C(C)C)O[C@@H]1[C@H]3O (stereo partly drawn) [Compound 6, 2,3-O-(3′-methylbut-2′-enyl) Bostrycin]	7.99 ± 0.09 µM	11.7 ± 1.18 µM	5.5 ± 0.24 µM	22.3 ± 2.89 µM	7.83 ± 0.32 µM	34.1 ± 0.85 µM	200 to 201 °C
COC1=CC(=O)c2c(O)c3c(c(O)c2C1=O)C[C@]1(C)OCO[C@@H]1[C@H]3OCO [Compound 7, 1-O-(hydroxymethyl)-2,3-O-(methylene) Bostrycin]	2.52 ± 0.26 µM	4.25 ± 0.57 µM	0.78 ± 0.04 µM	4.58 ± 0.5 µM	3.06 ± 0.1 µM	4.79 ± 0.52 µM	233 to 234 °C
COC1=CC(=O)c2c(O)c3c(c(O)c2C1=O)C[C@]1(C)OC(=O)O[C@@H]1[C@H]3O [Compound 8, 2,3-O-(carbonyl) Bostrycin]	1.59 ± 0.16 µM	1.26 ± 0.12 µM	0.52 ± 0.02 µM	3.32 ± 0.58 µM	2.92 ± 0.06 µM	21.7 ± 1.45 µM	246 to 247 °C
CNC1=CC(=O)c2c(O)c3c(c(O)c2C1=O)C[C@](C)(O)[C@H](O)[C@H]3O [Compound 9, 6-(Methylamino)-6-demethoxybostrycin]	3.58 ± 0.65 µM	> 50 µM	31.1 ± 1.94 µM	22.4 ± 1.16 µM	34.2 ± 1.27 µM	> 50 µM	
CCCNC1=CC(=O)c2c(O)c3c(c(O)c2C1=O)C[C@](C)(O)[C@H](O)[C@H]3O [Compound 10, 6-(n-Propylamino)-6-demethoxybostrycin]	14 ± 0.98 µM	> 50 µM	21.5 ± 1.43 µM	18 ± 0.6 µM	26.4 ± 0.89 µM	> 50 µM	210 to 211 °C
CCCCNC1=CC(=O)c2c(O)c3c(c(O)c2C1=O)C[C@](C)(O)[C@H](O)[C@H]3O [Compound 11, 6-(n-Butylamino)-6-demethoxybostrycin]	1.08 ± 0.21 µM	> 50 µM	25.1 ± 0.74 µM	35.7 ± 1.29 µM	36.5 ± 0.53 µM	> 50 µM	236 to 237 °C
CCCCCCNC1=CC(=O)c2c(O)c3c(c(O)c2C1=O)C[C@](C)(O)[C@H](O)[C@H]3O [Compound 12, 6-(n-Hexylamino)-6-demethoxybostrycin]	4.87 ± 0.23 µM	4.25 ± 0.75 µM	3.74 ± 0.67 µM	12.9 ± 0.96 µM	4.06 ± 0.65 µM		203 to 204 °C
C[C@]1(O)Cc2c(O)c3c(c(O)c2[C@H](O)[C@H]1O)C(=O)C=C(NCCO)C3=O [Compound 13, 6-(2′-Hydroxyethylamino)-6-demethoxybostrycin]	35.6 ± 1.4 µM	> 50 µM	> 50 µM	32.2 ± 2.43 µM	35.9 ± 1.13 µM	> 50 µM	202 to 203 °C
C[C@]1(O)Cc2c(O)c3c(c(O)c2[C@H](O)[C@H]1O)C(=O)C=C(NCCOCCO)C3=O [Compound 14, 6-[(2″-Hydroxyethoxy)ethylamino]-6-demethoxybostrycin]	> 50 µM	> 50 µM	> 50 µM	> 50 µM	> 50 µM	> 50 µM	112 to 113 °C
C[C@]1(O)Cc2c(O)c3c(c(O)c2[C@H](O)[C@H]1O)C(=O)C=C(Nc1ccccc1)C3=O [Compound 15, 6-(Phenylamino)-6-demethoxybostrycin]	3.72 ± 0.27 µM	10.3 ± 0.45 µM	4.87 ± 0.43 µM	> 50 µM	4.84 ± 0.25 µM	41.6 ± 0.51 µM	226 to 227 °C
COc1ccc(NC2=CC(=O)c3c(O)c4c(c(O)c3C2=O)C[C@](C)(O)[C@H](O)[C@H]4O)cc1 [Compound 16, 6-(p-Methoxyphenylamino)-6-demethoxybostrycin]	39.4 ± 0.68 µM	36.4 ± 2.08 µM	41.4 ± 2.86 µM	30.3 ± 1.63 µM	43.3 ± 1.56 µM		202 to 203 °C
C[C@]1(O)Cc2c(O)c3c(c(O)c2[C@H](O)[C@H]1O)C(=O)C=C(NCc1ccccc1)C3=O [Compound 17, 6-(Benzylamino)-6-demethoxybostrycin]	28.7 ± 2.37 µM	40.4 ± 1.49 µM	21.3 ± 2.02 µM	> 50 µM	20.6 ± 0.37 µM	19.8 ± 0.63 µM	153 to 154 °C
C[C@]1(O)Cc2c(O)c3c(c(O)c2[C@H](O)[C@H]1O)C(=O)C=C(N1CCCCC1)C3=O [Compound 20, 6-(Piperidin-1-yl)-6-demethoxybostrycin]	3.14 ± 0.31 µM	4.04 ± 0.35 µM	3.16 ± 0.23 µM	1.99 ± 0.17 µM	2.81 ± 0.31 µM		199 to 200 °C
CC1CCN(C2=CC(=O)c3c(O)c4c(c(O)c3C2=O)C[C@](C)(O)[C@H](O)[C@H]4O)CC1 [Compound 21, 6-(4′-Methylpiperidin-1-yl)-6-demethoxybostrycin]	4.62 ± 0.44 µM	6.38 ± 0.47 µM	3.06 ± 0.46 µM	6.09 ± 1.14 µM	3.25 ± 0.67 µM		162 to 163 °C
C[C@]1(O)Cc2c(O)c3c(c(O)c2[C@H](O)[C@H]1O)C(=O)C=C(N1CCC(c2ccccc2)CC1)C3=O [Compound 22, 6-(4′-Phenylpiperidin-1-yl)-6-demethoxybostrycin]	4.81 ± 0.4 µM	0.95 ± 0.13 µM	0.76 ± 0.03 µM	6.61 ± 1.12 µM	0.75 ± 0.05 µM		221 to 222 °C
C[C@]1(O)Cc2c(O)c3c(c(O)c2[C@H](O)[C@H]1O)C(=O)C(SCCO)=C(SCCO)C3=O [Compound 26, 6,7-bis(2′-Hydroxyethylthio)-6-demethoxybostrycin]	14.4 ± 0.42 µM	13.3 ± 0.2 µM	26.1 ± 3.15 µM	22.7 ± 1.95 µM	12 ± 1.53 µM		156 to 158 °C
C[C@]1(O)Cc2c(O)c3c(c(O)c2[C@H](O)[C@H]1O)C(=O)C(SCCCO)=C(SCCCO)C3=O [Compound 27, 6,7-bis(3′-Hydroxy-n-propylthio)-6-demethoxybostrycin]	6.01 ± 0.39 µM	3.19 ± 0.15 µM	7.31 ± 0.58 µM	3.18 ± 0.75 µM	3.08 ± 0.35 µM		150 to 151 °C
CC1SC2=C(SC1C)C(=O)c1c(O)c3c(c(O)c1C2=O)C[C@](C)(O)[C@H](O)[C@H]3O (stereo partly drawn) [Compound 29, 6,7-(Butan-2′,3′-yl-dithio)-6-demethoxybostrycin]	3.18 ± 0.22 µM	0.55 ± 0.11 µM	4.06 ± 0.35 µM	2.55 ± 0.55 µM	0.73 ± 0.02 µM		146 to 147 °C
COc1cccc2c1C(=O)c1c(O)c3c(c(O)c1C2=O)C[C@@](O)(C(=O)CO)C[C@@H]3O[C@H]1C[C@H](N)[C@@H](O)[C@H](C)O1 [epirubicin, reference compound]	0.96 ± 0.08 µM	0.56 ± 0.06 µM	0.61 ± 0.05 µM	0.96 ± 0.02 µM	0.48 ± 0.03 µM	0.48 ± 0.08 µM	

Reference: PMC3366684, “Studies on the Synthesis of Derivatives of Marine-Derived Bostrycin and Their Structure-Activity Relationship against Tumor Cells” (Marine Drugs, 2012)
